Values quoted from earlier work as cited in patent US20240269079A1, “MELATONIN FORMULATION IN SOLID DOSAGE FORM” (AGB-Pharma AB, priority 2021, published 2024).

How the values were obtained:
[1] = after administration

## COc1ccc2[nH]cc(CCNC(C)=O)c2c1 [melatonin, N-acetyl-5-methoxytryptamine]
[1]
  Time for blood levels to return to normal daytime levels: 6 to 8 h
other
  Solubility in aqueous solutions: low solubility
